The text below walks through data of ChEMBL document CHEMBL1201862, “PubChem BioAssay data set” (2004).

Molecules are shown by their SMILES.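 How tested: cells in 96-well plates exposed to compound for 48 hours at five concentrations. Abbreviation: GI50, concentration required for 50% inhibition of growth.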 Active and inactive are the calls of the source. Cut-off read from the data, not from the text of the source: active = GI50 up to about 1.1 µM and inactive = higher. Bounds are passed on as bounds.

Common to all, as to assay: inhibition of tumour cell growth, NCI panel, 48 h
For experiment [1], the system named is OVCAR-4.
The subject of experiment [2] is CAKI-1.
Experiment [3] deals with UO-31.
Experiment [4] deals with A549.
The subject of experiment [5] is EKVX.
Experiment [6] relates to M14.
Experiment [7] concerns T47D.
Experiment [8] concerns 786-0.
In experiment [9] the test system is SF-539.
Experiment [10] deals with KM12.
For experiment [11], the system named is HCT-116.
Experiment [12] relates to HL-60.
The test system of experiment [13] is NCI-H522.
Experiment [14] deals with MCF7.
Experiment [15] concerns SW-620.
Experiment [16] relates to SK-MEL-2.
The test system of experiment [17] is OVCAR-3.
The test system of experiment [18] is MDA-N.
Experiment [19] concerns COLO 205.
The test system of experiment [20] is NCI-H226.

Regarding `O=C1C2=C(C(=O)c3c(O)ccc(O)c31)[C@@H](O)[C@@H](O)[C@@H](O)C2`, the GI50 is 1.93 µM (inactive) in experiment [1]; 1.37 µM (inactive) in [2]; 4.66 µM (inactive) in [3]; 3.21 µM (inactive) in [4]; 2.77 µM (inactive) in [5]; 1.86 µM (inactive) in experiment [6]. Besides, the GI50 in experiment [7] was 1.1 µM (active); in [8] it was 2.02 µM (inactive); in experiment [9], 3.71 µM (inactive); in [10], 4.46 µM (inactive); in experiment [11], 0.47 µM (active); in experiment [12], 0.635 µM (active). The GI50 in [13] was 0.367 µM (active); in [14], 1.11 µM (active); in experiment [15] it was 0.681 µM (active); in [16] it was 1.73 µM (inactive); in experiment [17], 0.504 µM (active); in experiment [18], 1.49 µM (inactive). Also, the GI50 in [19] is 0.0741 µM (active); in experiment [20], 15.1 µM (inactive).
With `COc1ccc2nc3cc([N+](=O)[O-])ccc3c(Nc3ccc(S(=O)(=O)N=C(N)N)cc3)c2c1`, the GI50 was 28.2 µM (inactive) in [1]; 23.3 µM (inactive) in experiment [2]; 30.5 µM (inactive) in experiment [3]; 47 µM (inactive) in experiment [4]; 15.2 µM (inactive) in experiment [5]; 30.5 µM (inactive) in experiment [6]. Besides, the GI50 in experiment [7] is 9.91 µM (inactive); in [8], 20.1 µM (inactive); in [9], 24.1 µM (inactive); in experiment [10], 15.5 µM (inactive); in experiment [11] it was 11.9 µM (inactive); in [12] it was 11.9 µM (inactive). The GI50 was 18.8 µM (inactive) in experiment [13]; 9.55 µM (inactive) in experiment [14]; 36.8 µM (inactive) in experiment [15]; 18.5 µM (inactive) in [16]; 16.5 µM (inactive) in [17]; 39.3 µM (inactive) in experiment [18]. The GI50 in [19] is 23.1 µM (inactive); in experiment [20], 20.4 µM (inactive).
In the case of `CN(C)CCCNc1nnc(NCCCN(C)C)c2c(=O)c3sccc3[nH]c12`, the GI50 in experiment [1] was 5.42 µM (inactive); in experiment [2], 5.05 µM (inactive); in experiment [3] it was 2.75 µM (inactive); in [4], 5.41 µM (inactive); in experiment [5], 8.91 µM (inactive); in [6] it was 11.7 µM (inactive). The GI50 was 19.4 µM (inactive) in [7]; 4.59 µM (inactive) in experiment [8]; 5.51 µM (inactive) in [9]; 5.75 µM (inactive) in experiment [10]; 9.46 µM (inactive) in [11]; 3.59 µM (inactive) in experiment [12]. The GI50 in experiment [13] is 4.02 µM (inactive); in [14] it was 5.64 µM (inactive); in experiment [15], 4.56 µM (inactive); in experiment [16] it was 18.4 µM (inactive); in [17], 14.2 µM (inactive); in experiment [18] it was 3.4 µM (inactive). For the same molecule, the values for the GI50 in experiment [19] and in [20] were 2.82 µM (inactive) and 8.95 µM (inactive), respectively.
Turning to `COc1ccc(C(OCC2OC3(COC(c4ccccc4)(c4ccc(OC)cc4)c4ccc(OC)cc4)C(Oc4nc(=O)ccn43)C2O)(c2ccccc2)c2ccc(OC)cc2)cc1` (stereo not given), the GI50 in experiment [1], in experiment [2], in experiment [3], in [4], in experiment [5] and in [6] was > 100 µM (inactive) each time. The GI50 in experiment [7], in experiment [8], in experiment [9], in [10], in experiment [11] and in experiment [12] was > 100 µM (inactive) in each case. Further, the GI50 in experiment [13], in experiment [14], in [15], in [16], in experiment [17] and in [18] was > 100 µM (inactive) each time. Further, the GI50 in experiment [19] and in experiment [20] was > 100 µM (inactive) each time.
On to `CCc1ccccc1N1CCN(C(=O)c2cc(OC)c(OC)c(OC)c2)CC1`, for which the GI50 in experiment [1] was 1.15 µM (inactive); in [2], < 0.0205 µM (active); in experiment [3], 0.0685 µM (active); in experiment [4], 0.0452 µM (active); in experiment [5] it was 1.39 µM (inactive); in experiment [6], 0.0135 µM (active). The GI50 in experiment [7] is 17.3 µM (inactive); in experiment [8] it was < 0.0149 µM (active); in experiment [9], 0.0212 µM (active); in experiment [10], 0.0231 µM (active); in experiment [11], 0.042 µM (active); in experiment [12], 0.0233 µM (active). The GI50 in [13] is 0.0134 µM (active); in [14] it was 0.0178 µM (active); in experiment [15], 0.0208 µM (active); in [16], 0.0247 µM (active); in experiment [17], 0.0143 µM (active); in experiment [18] it was < 0.01 µM (active). The GI50 in [19] was 0.0219 µM (active); in [20], 0.103 µM (active).
`Cc1ccc(S(=O)(=O)[N-]C2C(=O)c3ccccc3C(=O)C2[n+]2cccc(C(N)=O)c2)cc1` (stereo not given): the GI50 is 26.9 µM (inactive) in experiment [1]; 40.9 µM (inactive) in experiment [2]; > 100 µM (inactive) in [3]; > 100 µM (inactive) in experiment [4]; > 100 µM (inactive) in [5]; > 100 µM (inactive) in [6]. The GI50 was 24 µM (inactive) in experiment [7]; 30.8 µM (inactive) in experiment [8]; > 100 µM (inactive) in experiment [9]; > 100 µM (inactive) in experiment [10]; 17.4 µM (inactive) in experiment [11]; > 100 µM (inactive) in experiment [12]. Further, the GI50 in experiment [13] was > 100 µM (inactive); in experiment [14], > 100 µM (inactive); in [15], > 100 µM (inactive); in experiment [16], > 100 µM (inactive); in [17], > 100 µM (inactive); in experiment [18], 34.8 µM (inactive). For the same molecule, the GI50 in experiment [19] is 24.8 µM (inactive); in experiment [20] it was > 100 µM (inactive).
As for `S=C1N=C2C(=N1)n1c3c(c4ccccc41)CCCC23` (stereo not given), the GI50 is 67.5 µM (inactive) in experiment [1]; 42.4 µM (inactive) in experiment [2]; 60.5 µM (inactive) in [3]; 29.2 µM (inactive) in experiment [4]; > 100 µM (inactive) in [5]; > 100 µM (inactive) in [6]. Besides, the GI50 in experiment [7] was 26 µM (inactive); in experiment [8] it was 15.5 µM (inactive); in experiment [9], 43.3 µM (inactive); in experiment [10] it was 49.2 µM (inactive); in experiment [11], 35.2 µM (inactive); in [12], 55.8 µM (inactive). Also, the GI50 in [13] is 22.1 µM (inactive); in experiment [14], 24 µM (inactive); in [15] it was 32.4 µM (inactive); in experiment [16], > 100 µM (inactive); in [17], 52.4 µM (inactive); in experiment [18] it was 63.8 µM (inactive). Moreover, the GI50 in experiment [19] was 42 µM (inactive); in experiment [20] it was 34.9 µM (inactive).
Take `C=CCNc1nc2c(s1)C(=O)c1ccccc1C2=O`: the GI50 is 7.87 µM (inactive) in [1]; 13.7 µM (inactive) in [2]; 13.3 µM (inactive) in experiment [3]; 6.43 µM (inactive) in [4]; 15.6 µM (inactive) in experiment [5]; 5.12 µM (inactive) in [6]. Further, the GI50 was 14.4 µM (inactive) in [7]; 14.5 µM (inactive) in experiment [8]; 8.11 µM (inactive) in experiment [9]; 13.8 µM (inactive) in [10]; 3.81 µM (inactive) in [11]; 1.61 µM (inactive) in experiment [12]. Also, the GI50 in experiment [13] was 6.41 µM (inactive); in [14], 6.25 µM (inactive); in experiment [15] it was 12.9 µM (inactive); in experiment [16], 10.9 µM (inactive); in experiment [17] it was 12.1 µM (inactive); in experiment [18], 1.86 µM (inactive). Moreover, the GI50 in experiment [19] was 20.1 µM (inactive); in experiment [20] it was 21.2 µM (inactive).
Turning to `COc1cc2c[n+](C)c3c4ccccc4ccc3c2cc1OC.COc1cc2cnc3c4ccccc4ccc3c2cc1OC`, the GI50 in [1] is 21.7 µM (inactive); in experiment [2], 58.6 µM (inactive); in [3], 66.1 µM (inactive); in experiment [4], 2.54 µM (inactive); in experiment [5], 2.2 µM (inactive); in experiment [6], 20.2 µM (inactive). The GI50 in experiment [7] is 3.14 µM (inactive); in experiment [8] it was 12.3 µM (inactive); in experiment [9], 10 µM (inactive); in [10], 0.859 µM (active); in [11] it was 7.83 µM (inactive); in [12], 42.7 µM (inactive). The GI50 in [13] was 1.22 µM (inactive); in [14], 1.79 µM (inactive); in experiment [15] it was 4.34 µM (inactive); in experiment [16], 9.82 µM (inactive); in experiment [17] it was 4.13 µM (inactive); in experiment [18] it was 7.05 µM (inactive). For the same molecule, the GI50 in experiment [19] was 2.86 µM (inactive); in experiment [20] it was 13.1 µM (inactive).
With `CCOC(=O)C(C(=S)SC)c1nn2c(=O)cc(C)nc2s1` (stereo not given), the GI50 is 23.7 µM (inactive) in experiment [1]; 19.9 µM (inactive) in experiment [2]; 23 µM (inactive) in [3]; 19.5 µM (inactive) in [4]; 18.8 µM (inactive) in experiment [5]; 15.6 µM (inactive) in [6]. In addition, the GI50 was 19 µM (inactive) in [7]; 20.3 µM (inactive) in experiment [8]; 18.3 µM (inactive) in experiment [9]; 26.2 µM (inactive) in experiment [10]; 18.6 µM (inactive) in experiment [11]; 18.1 µM (inactive) in experiment [12]. In addition, the GI50 in [13] was 21.1 µM (inactive); in experiment [14], 17.1 µM (inactive); in experiment [15] it was 20.3 µM (inactive); in experiment [16], 20.8 µM (inactive); in [17], 20.2 µM (inactive); in [18], 15.8 µM (inactive). The GI50 in [19] is 24.6 µM (inactive); in experiment [20], 17.9 µM (inactive).
